In the supplement of paper PMC12463676, “Small-molecule dissolution of stress granules by redox modulation benefits ALS models” (Nature Chemical Biology, 2025):

The targets below were run with O=[As]([O-])(O)O.[K+] [potassium arsenate] (assay: thermal stability z-score vs DMSO; higher = more thermally stabilized by treatment). Settings: HeLa; arsenate concentration 1 mM.
Procedure: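 Cellular thermal proteome profiling in HeLa cells treated with 1 mM arsenate for 1 h (DMSO pretreatment), heated to ten temperatures (37-66.3 °C). Soluble protein was quantified by TMT mass spectrometry relative to DMSO controls; the thermal stability score was transformed to a z-score; mean of n = 3 experiments.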
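Further: each temperature applied for 3 min, abundance score taken as mean log2 fold change at the two lowest temperatures, z-score obtained by mean subtraction and division by SD.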

UniProt P50502, sequence (P50502 whole entry): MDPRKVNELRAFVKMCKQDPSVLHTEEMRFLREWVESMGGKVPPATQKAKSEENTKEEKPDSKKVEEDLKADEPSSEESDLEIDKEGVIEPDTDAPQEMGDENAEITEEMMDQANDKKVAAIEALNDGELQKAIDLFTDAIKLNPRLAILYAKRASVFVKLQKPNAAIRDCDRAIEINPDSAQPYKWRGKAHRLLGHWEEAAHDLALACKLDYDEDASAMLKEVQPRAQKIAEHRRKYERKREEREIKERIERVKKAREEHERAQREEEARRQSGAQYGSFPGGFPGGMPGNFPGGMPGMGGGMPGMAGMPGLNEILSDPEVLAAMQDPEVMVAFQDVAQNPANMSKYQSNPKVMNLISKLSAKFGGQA
UniProt Q13228, sequence (Q13228 whole entry): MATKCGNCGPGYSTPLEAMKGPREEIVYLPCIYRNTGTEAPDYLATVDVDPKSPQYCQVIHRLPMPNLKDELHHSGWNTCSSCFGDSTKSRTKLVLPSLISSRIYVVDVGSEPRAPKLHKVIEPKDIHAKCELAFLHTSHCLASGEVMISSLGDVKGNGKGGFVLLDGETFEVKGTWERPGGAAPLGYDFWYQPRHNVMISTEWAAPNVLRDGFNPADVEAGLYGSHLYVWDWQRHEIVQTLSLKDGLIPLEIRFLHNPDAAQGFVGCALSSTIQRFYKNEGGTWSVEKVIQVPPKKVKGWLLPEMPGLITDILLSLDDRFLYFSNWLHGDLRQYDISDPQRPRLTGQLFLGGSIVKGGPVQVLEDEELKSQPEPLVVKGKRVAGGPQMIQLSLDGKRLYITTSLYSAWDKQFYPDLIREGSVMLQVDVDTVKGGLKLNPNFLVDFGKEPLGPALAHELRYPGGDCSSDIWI
UniProt P48735, sequence (P48735 whole entry): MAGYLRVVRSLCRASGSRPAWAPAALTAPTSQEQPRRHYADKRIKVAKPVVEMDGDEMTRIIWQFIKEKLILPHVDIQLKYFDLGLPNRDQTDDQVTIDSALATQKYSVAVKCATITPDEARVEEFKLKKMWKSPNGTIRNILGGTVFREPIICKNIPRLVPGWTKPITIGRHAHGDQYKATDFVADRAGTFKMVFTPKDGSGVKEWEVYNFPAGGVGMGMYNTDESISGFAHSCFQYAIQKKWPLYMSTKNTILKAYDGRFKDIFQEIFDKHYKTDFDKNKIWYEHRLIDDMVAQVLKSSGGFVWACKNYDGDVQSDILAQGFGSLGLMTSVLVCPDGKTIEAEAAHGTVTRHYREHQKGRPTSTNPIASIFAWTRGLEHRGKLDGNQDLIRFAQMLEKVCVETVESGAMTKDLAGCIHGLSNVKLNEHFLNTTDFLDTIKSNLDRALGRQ
UniProt Q8NFW8, sequence (Q8NFW8 whole entry): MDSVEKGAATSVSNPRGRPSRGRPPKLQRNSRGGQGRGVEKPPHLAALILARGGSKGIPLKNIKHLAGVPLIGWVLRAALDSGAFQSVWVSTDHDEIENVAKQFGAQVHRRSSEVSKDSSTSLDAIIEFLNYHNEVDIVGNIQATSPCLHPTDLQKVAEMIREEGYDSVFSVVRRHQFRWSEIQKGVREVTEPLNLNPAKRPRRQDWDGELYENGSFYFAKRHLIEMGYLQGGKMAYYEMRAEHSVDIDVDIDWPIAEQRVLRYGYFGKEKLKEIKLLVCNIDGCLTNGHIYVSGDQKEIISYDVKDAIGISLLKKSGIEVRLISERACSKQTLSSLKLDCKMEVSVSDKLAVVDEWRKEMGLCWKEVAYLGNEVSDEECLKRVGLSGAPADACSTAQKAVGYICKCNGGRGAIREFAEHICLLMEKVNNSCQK
UniProt P05549, sequence (P05549 whole entry): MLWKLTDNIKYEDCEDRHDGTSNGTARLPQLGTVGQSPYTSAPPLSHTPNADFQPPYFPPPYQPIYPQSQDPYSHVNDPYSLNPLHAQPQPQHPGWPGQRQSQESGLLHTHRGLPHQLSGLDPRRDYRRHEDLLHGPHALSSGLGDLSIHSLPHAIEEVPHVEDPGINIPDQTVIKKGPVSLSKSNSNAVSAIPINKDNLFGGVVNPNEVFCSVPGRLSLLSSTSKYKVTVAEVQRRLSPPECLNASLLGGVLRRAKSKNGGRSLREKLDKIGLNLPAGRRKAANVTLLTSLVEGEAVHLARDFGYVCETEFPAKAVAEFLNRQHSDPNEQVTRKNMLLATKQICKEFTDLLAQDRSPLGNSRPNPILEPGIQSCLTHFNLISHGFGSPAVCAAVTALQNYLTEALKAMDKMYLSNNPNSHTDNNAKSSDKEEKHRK
UniProt Q9Y316, sequence (Q9Y316 whole entry): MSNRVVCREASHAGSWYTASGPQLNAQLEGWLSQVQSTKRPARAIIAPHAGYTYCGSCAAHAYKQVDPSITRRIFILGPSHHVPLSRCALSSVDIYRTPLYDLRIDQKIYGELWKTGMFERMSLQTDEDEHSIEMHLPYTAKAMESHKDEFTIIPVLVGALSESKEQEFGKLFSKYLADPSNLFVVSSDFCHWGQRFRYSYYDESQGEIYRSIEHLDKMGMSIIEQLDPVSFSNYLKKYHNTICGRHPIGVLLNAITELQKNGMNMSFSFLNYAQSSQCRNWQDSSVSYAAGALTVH
UniProt Q8NC42, sequence (Q8NC42 whole entry): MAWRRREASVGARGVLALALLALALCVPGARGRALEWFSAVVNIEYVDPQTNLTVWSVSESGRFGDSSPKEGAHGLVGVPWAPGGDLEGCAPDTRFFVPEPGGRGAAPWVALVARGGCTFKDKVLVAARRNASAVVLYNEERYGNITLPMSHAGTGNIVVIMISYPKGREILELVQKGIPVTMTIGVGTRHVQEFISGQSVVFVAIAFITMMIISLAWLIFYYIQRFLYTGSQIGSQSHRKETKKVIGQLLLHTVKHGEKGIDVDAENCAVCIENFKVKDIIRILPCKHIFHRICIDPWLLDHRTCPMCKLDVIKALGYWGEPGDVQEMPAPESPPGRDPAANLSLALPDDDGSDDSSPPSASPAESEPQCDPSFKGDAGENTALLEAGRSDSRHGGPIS
UniProt Q86XK3, sequence (Q86XK3 whole entry): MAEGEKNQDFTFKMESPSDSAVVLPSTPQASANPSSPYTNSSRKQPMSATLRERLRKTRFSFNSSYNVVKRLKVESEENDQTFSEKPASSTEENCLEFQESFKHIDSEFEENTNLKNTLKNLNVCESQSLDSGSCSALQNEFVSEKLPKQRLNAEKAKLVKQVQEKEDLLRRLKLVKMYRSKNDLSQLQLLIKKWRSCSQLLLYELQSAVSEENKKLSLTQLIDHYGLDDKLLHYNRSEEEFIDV
UniProt Q9NWB6, sequence (Q9NWB6 whole entry): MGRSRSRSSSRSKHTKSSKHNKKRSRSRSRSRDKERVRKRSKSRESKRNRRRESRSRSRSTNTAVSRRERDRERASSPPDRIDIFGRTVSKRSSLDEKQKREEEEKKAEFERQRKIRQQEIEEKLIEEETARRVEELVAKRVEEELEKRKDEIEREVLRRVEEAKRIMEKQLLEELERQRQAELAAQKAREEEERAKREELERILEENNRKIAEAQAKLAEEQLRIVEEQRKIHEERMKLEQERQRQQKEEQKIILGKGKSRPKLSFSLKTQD
UniProt Q9BVM2, sequence (Q9BVM2 whole entry): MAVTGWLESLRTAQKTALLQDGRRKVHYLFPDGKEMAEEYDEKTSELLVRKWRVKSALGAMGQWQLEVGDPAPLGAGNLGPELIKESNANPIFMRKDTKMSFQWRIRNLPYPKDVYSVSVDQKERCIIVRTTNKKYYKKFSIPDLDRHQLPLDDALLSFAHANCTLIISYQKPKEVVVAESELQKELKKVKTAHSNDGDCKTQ
UniProt Q5MNZ6, sequence (Q5MNZ6 whole entry): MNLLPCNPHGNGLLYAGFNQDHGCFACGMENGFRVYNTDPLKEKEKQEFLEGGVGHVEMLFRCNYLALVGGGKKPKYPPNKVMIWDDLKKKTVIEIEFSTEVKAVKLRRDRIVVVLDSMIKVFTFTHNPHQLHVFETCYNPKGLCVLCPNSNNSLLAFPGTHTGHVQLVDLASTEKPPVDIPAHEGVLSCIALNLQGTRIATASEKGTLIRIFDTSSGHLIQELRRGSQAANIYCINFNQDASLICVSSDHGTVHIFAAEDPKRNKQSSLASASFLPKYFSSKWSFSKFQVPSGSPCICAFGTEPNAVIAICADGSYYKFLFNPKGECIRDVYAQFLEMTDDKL
UniProt Q9H3P7, sequence (Q9H3P7 whole entry): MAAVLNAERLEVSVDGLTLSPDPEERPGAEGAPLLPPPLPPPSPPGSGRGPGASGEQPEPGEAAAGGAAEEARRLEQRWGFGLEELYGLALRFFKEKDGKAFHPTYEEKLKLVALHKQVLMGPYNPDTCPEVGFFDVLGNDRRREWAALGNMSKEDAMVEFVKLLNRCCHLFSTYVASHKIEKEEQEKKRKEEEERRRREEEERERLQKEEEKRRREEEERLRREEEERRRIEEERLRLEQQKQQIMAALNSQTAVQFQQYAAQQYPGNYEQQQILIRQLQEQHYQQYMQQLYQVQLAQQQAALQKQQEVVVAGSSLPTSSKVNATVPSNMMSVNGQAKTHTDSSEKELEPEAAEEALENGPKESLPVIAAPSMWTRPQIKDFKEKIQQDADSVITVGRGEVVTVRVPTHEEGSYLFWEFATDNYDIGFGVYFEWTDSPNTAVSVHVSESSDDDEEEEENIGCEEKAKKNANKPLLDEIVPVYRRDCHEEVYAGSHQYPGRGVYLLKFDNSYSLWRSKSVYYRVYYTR
UniProt Q14376, sequence (Q14376 whole entry): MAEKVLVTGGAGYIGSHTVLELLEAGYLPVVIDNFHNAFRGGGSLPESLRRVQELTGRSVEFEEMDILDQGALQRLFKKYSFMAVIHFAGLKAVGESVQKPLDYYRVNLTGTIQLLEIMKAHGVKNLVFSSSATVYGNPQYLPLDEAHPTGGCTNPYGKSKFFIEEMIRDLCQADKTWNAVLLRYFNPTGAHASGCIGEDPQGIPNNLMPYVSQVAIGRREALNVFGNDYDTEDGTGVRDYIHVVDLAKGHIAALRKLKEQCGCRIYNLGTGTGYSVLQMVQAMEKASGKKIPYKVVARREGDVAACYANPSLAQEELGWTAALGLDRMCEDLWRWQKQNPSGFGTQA

Target	thermal stability z-score
ACBD3 (UniProt Q9H3P7)	0.21
RBM42 (UniProt Q9BTD8)	-0.098
EIF1 (UniProt P41567)	-0.193
SLC2A1 (UniProt P11166)	0.124
MRPL57 (UniProt Q9BQC6)	0.671
TPRG1L (UniProt Q5T0D9)	0.921
YWHAG (UniProt P61981)	-0.403
FAF2 (UniProt Q96CS3)	-0.262
DAPK3 (UniProt O43293)	0.228
GLUL (UniProt P15104)	-1.16
FARP2 (UniProt O94887)	-0.235
GORASP2 (UniProt Q9H8Y8)	0.824
VPS11 (UniProt Q9H270)	0.734
ABHD6 (UniProt Q9BV23)	-0.179
UEVLD (UniProt Q8IX04)	0.0354
MTCH2 (UniProt Q9Y6C9)	0.688
TFAP2A (UniProt P05549)	0.566
SLC27A2 (UniProt O14975)	0.45
AVEN (UniProt Q9NQS1)	-0.823
HELZ (UniProt P42694)	-0.122
SNTB2 (UniProt Q13425)	-0.227
PAN2 (UniProt Q504Q3)	-0.143
CMAS (UniProt Q8NFW8)	-0.438
SPG7 (UniProt Q9UQ90)	0.156

Target	thermal stability z-score
BASP1 (UniProt P80723)	-0.142
ZMYM4 (UniProt Q5VZL5)	-0.646
SELENBP1 (UniProt Q13228)	0.784
PAPD5 (UniProt Q8NDF8)	-0.0587
FTH1 (UniProt P02794)	-2.18
HSPA1B|HSPA1A	-0.064
ARL8B (UniProt Q9NVJ2)	-0.267
GALE (UniProt Q14376)	-2.31
SLU7 (UniProt O95391)	-0.0775
RNF149 (UniProt Q8NC42)	-0.556
EXOSC9 (UniProt Q06265)	-1.59
ARGLU1 (UniProt Q9NWB6)	-0.658
PLIN3 (UniProt O60664)	0.704
DCXR (UniProt Q7Z4W1)	0.528
TIMM23 (UniProt O14925)	0.0795
ECH1 (UniProt Q13011)	-0.0954
PHGDH (UniProt O43175)	-2.42
SFR1 (UniProt Q86XK3)	0.036
HMGN1 (UniProt P05114)	-0.289
NCKAP5L (UniProt Q9HCH0)	0.264
WDR45B (UniProt Q5MNZ6)	0.162
DUSP9 (UniProt Q99956)	0.0461
USP48 (UniProt Q86UV5)	-0.669
PDLIM1 (UniProt O00151)	-0.239

Target	thermal stability z-score
CTNND1 (UniProt O60716)	-0.105
RAB10 (UniProt P61026)	0.276
PSAP (UniProt P07602)	-0.336
NFYB (UniProt P25208)	-0.691
NDUFS6 (UniProt O75380)	-0.244
DNAJC7 (UniProt Q99615)	-0.656
RIPK2 (UniProt O43353)	-0.644
ST13 (UniProt P50502)	0.962
ITSN1 (UniProt Q15811)	0.365
IDH2 (UniProt P48735)	-0.911
GPATCH11 (UniProt Q8N954)	0.108
MEMO1 (UniProt Q9Y316)	0.0822
MRI1 (UniProt Q9BV20)	-0.37
SCO1 (UniProt O75880)	3.03
CXADR (UniProt P78310)	0.0224
NECAP2 (UniProt Q9NVZ3)	-0.238
ABCF2 (UniProt Q9UG63)	1.72
ITPK1 (UniProt Q13572)	-0.31
SQLE (UniProt Q14534)	0.26
DPCD (UniProt Q9BVM2)	0.0166
GID8 (UniProt Q9NWU2)	-0.0145
C17ORF75 (UniProt Q9HAS0)	-0.0267
GAPDH (UniProt P04406)	-1.5

What follows are targets tested with NC(=O)CCCCC1CCSS1 [lipoamide] in the same assay as above. Settings: HeLa; lipoamide concentration 100 µM; arsenate co-treatment: 1 mM arsenate 1 h.
Procedure: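 Cellular thermal proteome profiling in HeLa cells. Cells were treated with 100 µM lipoamide for 1 h, with or without 1 mM arsenate for a further 1 h, then heated to ten temperatures (37-66.3 °C), and soluble protein was quantified by TMT mass spectrometry relative to 0.1% DMSO controls. The thermal stability score (sum of log2 fold changes minus the abundance score) was transformed to a z-score; mean of n = 3 experiments.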

Target	thermal stability z-score
ACBD3 (UniProt Q9H3P7)	0.447
RBM42 (UniProt Q9BTD8)	0.952
EIF1 (UniProt P41567)	-0.179
SLC2A1 (UniProt P11166)	0.651
MRPL57 (UniProt Q9BQC6)	0.281
TPRG1L (UniProt Q5T0D9)	-0.302
YWHAG (UniProt P61981)	0.0458
FAF2 (UniProt Q96CS3)	-0.435
DAPK3 (UniProt O43293)	-0.0576
GLUL (UniProt P15104)	0.732
FARP2 (UniProt O94887)	-0.32
GORASP2 (UniProt Q9H8Y8)	0.45
VPS11 (UniProt Q9H270)	-0.214
ABHD6 (UniProt Q9BV23)	-1.6
UEVLD (UniProt Q8IX04)	0.183
MTCH2 (UniProt Q9Y6C9)	-0.0451
TFAP2A (UniProt P05549)	0.831
SLC27A2 (UniProt O14975)	-0.257
AVEN (UniProt Q9NQS1)	0.134
HELZ (UniProt P42694)	-0.153
SNTB2 (UniProt Q13425)	0.14
PAN2 (UniProt Q504Q3)	0.0953
CMAS (UniProt Q8NFW8)	-0.0844
SPG7 (UniProt Q9UQ90)	-0.126

Target	thermal stability z-score
BASP1 (UniProt P80723)	0.861
ZMYM4 (UniProt Q5VZL5)	-0.347
SELENBP1 (UniProt Q13228)	0.567
PAPD5 (UniProt Q8NDF8)	0.175
FTH1 (UniProt P02794)	0.266
HSPA1B|HSPA1A	-0.148
ARL8B (UniProt Q9NVJ2)	-0.122
GALE (UniProt Q14376)	0.0359
SLU7 (UniProt O95391)	-0.353
RNF149 (UniProt Q8NC42)	-0.375
EXOSC9 (UniProt Q06265)	0.0277
ARGLU1 (UniProt Q9NWB6)	0.406
PLIN3 (UniProt O60664)	0.559
DCXR (UniProt Q7Z4W1)	0.346
TIMM23 (UniProt O14925)	0.248
ECH1 (UniProt Q13011)	-0.108
PHGDH (UniProt O43175)	1.08
SFR1 (UniProt Q86XK3)	-0.12
HMGN1 (UniProt P05114)	0.242
NCKAP5L (UniProt Q9HCH0)	-0.000592
WDR45B (UniProt Q5MNZ6)	0.848
DUSP9 (UniProt Q99956)	0.738
USP48 (UniProt Q86UV5)	-0.179
PDLIM1 (UniProt O00151)	0.156

Target	thermal stability z-score
CTNND1 (UniProt O60716)	0.292
RAB10 (UniProt P61026)	0.387
PSAP (UniProt P07602)	0.0503
NFYB (UniProt P25208)	0.446
NDUFS6 (UniProt O75380)	-0.253
DNAJC7 (UniProt Q99615)	-0.214
RIPK2 (UniProt O43353)	-0.255
ST13 (UniProt P50502)	0.433
ITSN1 (UniProt Q15811)	-0.734
IDH2 (UniProt P48735)	-0.129
GPATCH11 (UniProt Q8N954)	-0.804
MEMO1 (UniProt Q9Y316)	0.326
MRI1 (UniProt Q9BV20)	0.156
SCO1 (UniProt O75880)	-2.79
CXADR (UniProt P78310)	0.11
NECAP2 (UniProt Q9NVZ3)	0.16
ABCF2 (UniProt Q9UG63)	-0.652
ITPK1 (UniProt Q13572)	-0.0201
SQLE (UniProt Q14534)	0.647
DPCD (UniProt Q9BVM2)	-0.929
GID8 (UniProt Q9NWU2)	0.00199
C17ORF75 (UniProt Q9HAS0)	0.0162
GAPDH (UniProt P04406)	-1.1

Same assay, conditions: HeLa; lipoamide concentration 100 µM; arsenate co-treatment: none

Target	thermal stability z-score
ACBD3 (UniProt Q9H3P7)	0.826
RBM42 (UniProt Q9BTD8)	0.152
EIF1 (UniProt P41567)	-0.0958
SLC2A1 (UniProt P11166)	0.659
MRPL57 (UniProt Q9BQC6)	0.104
TPRG1L (UniProt Q5T0D9)	0.421
YWHAG (UniProt P61981)	-0.0254
FAF2 (UniProt Q96CS3)	-0.684
DAPK3 (UniProt O43293)	-0.0876
GLUL (UniProt P15104)	0.282
FARP2 (UniProt O94887)	-0.266
GORASP2 (UniProt Q9H8Y8)	-0.749
VPS11 (UniProt Q9H270)	-0.578
ABHD6 (UniProt Q9BV23)	-1.07
UEVLD (UniProt Q8IX04)	0.107
MTCH2 (UniProt Q9Y6C9)	0.12
TFAP2A (UniProt P05549)	0.868
SLC27A2 (UniProt O14975)	-0.484
AVEN (UniProt Q9NQS1)	-0.00487
HELZ (UniProt P42694)	-0.0553
SNTB2 (UniProt Q13425)	-0.309
PAN2 (UniProt Q504Q3)	-0.21
CMAS (UniProt Q8NFW8)	-0.141
SPG7 (UniProt Q9UQ90)	-0.0687

Target	thermal stability z-score
BASP1 (UniProt P80723)	0.592
ZMYM4 (UniProt Q5VZL5)	0.0509
SELENBP1 (UniProt Q13228)	0.164
PAPD5 (UniProt Q8NDF8)	-0.0726
FTH1 (UniProt P02794)	0.204
HSPA1B|HSPA1A	0.0496
ARL8B (UniProt Q9NVJ2)	-0.507
GALE (UniProt Q14376)	-0.161
SLU7 (UniProt O95391)	-0.364
RNF149 (UniProt Q8NC42)	-0.859
EXOSC9 (UniProt Q06265)	-1.24
ARGLU1 (UniProt Q9NWB6)	0.211
PLIN3 (UniProt O60664)	0.461
DCXR (UniProt Q7Z4W1)	-0.203
TIMM23 (UniProt O14925)	-0.124
ECH1 (UniProt Q13011)	0.163
PHGDH (UniProt O43175)	0.761
SFR1 (UniProt Q86XK3)	-0.359
HMGN1 (UniProt P05114)	0.681
NCKAP5L (UniProt Q9HCH0)	0.244
WDR45B (UniProt Q5MNZ6)	0.63
DUSP9 (UniProt Q99956)	0.0584
USP48 (UniProt Q86UV5)	-0.137
PDLIM1 (UniProt O00151)	0.134

Target	thermal stability z-score
CTNND1 (UniProt O60716)	0.231
RAB10 (UniProt P61026)	0.379
PSAP (UniProt P07602)	-0.136
NFYB (UniProt P25208)	0.825
NDUFS6 (UniProt O75380)	0.123
DNAJC7 (UniProt Q99615)	0.475
RIPK2 (UniProt O43353)	0.45
ST13 (UniProt P50502)	0.404
ITSN1 (UniProt Q15811)	-0.15
IDH2 (UniProt P48735)	0.0632
GPATCH11 (UniProt Q8N954)	-0.268
MEMO1 (UniProt Q9Y316)	0.0877
MRI1 (UniProt Q9BV20)	0.0639
SCO1 (UniProt O75880)	-2.65
CXADR (UniProt P78310)	0.273
NECAP2 (UniProt Q9NVZ3)	-0.169
ABCF2 (UniProt Q9UG63)	-0.279
ITPK1 (UniProt Q13572)	0.179
SQLE (UniProt Q14534)	1.27
DPCD (UniProt Q9BVM2)	-0.513
GID8 (UniProt Q9NWU2)	0.0715
C17ORF75 (UniProt Q9HAS0)	-0.0686
GAPDH (UniProt P04406)	-0.00491
